The source made the active and inactive calls. The calls are words filed in the database; no cut-off is given here.
Assays:
[1] = test system: HaCaT; assay: Inhibition of colony formation of human HaCaT cells; type: functional, cell-based
[2] = molecular target: T1, CYP11A1 (cholesterol side-chain cleavage enzyme, mitochondrial) (Bos taurus, UniProt P00189); assay: Drug metabolism assessed as bovine CYP11A1-mediated compound metabolism after 2 mins incubation using compound loaded phospholipid vesicle by reverse phase HPLC; type: ADME; conditions: cattle, bovine CYP11A1 with compound-loaded phospholipid vesicles; read-out: Drug metabolism
T1 sequence (P00189 whole entry): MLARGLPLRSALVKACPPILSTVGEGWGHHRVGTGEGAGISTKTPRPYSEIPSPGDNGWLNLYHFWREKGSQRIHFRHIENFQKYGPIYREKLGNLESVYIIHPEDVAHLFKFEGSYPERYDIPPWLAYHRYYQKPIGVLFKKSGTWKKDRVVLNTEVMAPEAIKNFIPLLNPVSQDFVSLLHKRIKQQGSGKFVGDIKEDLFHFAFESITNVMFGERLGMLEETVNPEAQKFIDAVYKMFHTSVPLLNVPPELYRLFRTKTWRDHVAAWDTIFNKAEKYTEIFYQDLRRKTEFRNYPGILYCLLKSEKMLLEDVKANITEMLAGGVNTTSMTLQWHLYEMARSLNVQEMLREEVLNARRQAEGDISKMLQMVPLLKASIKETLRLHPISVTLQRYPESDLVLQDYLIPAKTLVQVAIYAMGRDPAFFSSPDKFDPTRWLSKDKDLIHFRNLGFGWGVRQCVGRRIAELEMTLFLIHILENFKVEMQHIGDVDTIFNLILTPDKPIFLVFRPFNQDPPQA

[3] = Antiproliferative activity against NHEK cells assessed as cell proliferation incubated for 24 hrs by [3H]thymidine incorporation assay relative to untreated control
[4] = test system: HEK293; assay: Stimulation of cell proliferation of NHEK cells at 0.1 nM incubated for 24 hrs by [3H]thymidine incorporation assay; type: functional, cell-based; conditions: Homo sapiens
[5] = Antiproliferative activity against NHEK cells incubated for 24 hrs by [3H]thymidine incorporation assay; type: functional, cell-based; conditions: Homo sapiens

## C=C1/C(=C\C=C2/CCC[C@]3(C)[C@@H]([C@H](C)CCCC(C)(C)O)CC[C@@H]23)C[C@@H](O)C[C@@H]1O
[1]
  inhibition: Active

## C=C1CC[C@H](O)C/C1=C/C=C1\CCC[C@@]2(C)[C@H]1CC[C@@H]2[C@](C)(O)CCCC(C)C
[2]
  metabolised at 2 min: 58%
[3]
  level, % of control: <50%
[4]
  Activity: Active
[5]
  EC50: 4.09 nM

## C=C1CC[C@H](O)C/C1=C/C=C1\CCC[C@]2(C)[C@@H]([C@H](C)CCCC(C)(C)O)CC[C@@H]12
[1]
  inhibition: inactive

## C=C1CC[C@H](O)C/C1=C/C=C1\CCC[C@@]2(C)[C@H]1CC[C@@H]2[C@@](C)(O)CCCC(C)C
[2]
  metabolised at 2 min: 13%
[3]
  level, % of control: <50%
[1]
  inhibition: Active
[5]
  EC50: 0.728 nM

From ChEMBL document CHEMBL2034926, “Design, synthesis, and biological action of 20R-hydroxyvitamin D3” (J Med Chem, 2012)
